Measured values taken from the NIST ThermoML archive (doi:10.1016/j.jct.2013.09.035).

Experiment: wn = mass fraction of the nth substance listed
Details: Liquid, Vibrating tube method, w2 = 0.5

CCOC(F)(F)C(F)(C(F)(F)F)C(F)(F)F [nonafluoroisobutyl ethyl ether] + CCOC(F)(F)C(F)(F)C(F)(F)C(F)(F)F
Details | mass density [kg/m3]
283.47 K, 10000 kPa | 1482.27
283.48 K, 100 kPa | 1457.82
283.48 K, 1000 kPa | 1460.24
283.48 K, 3000 kPa | 1465.3
283.48 K, 5000 kPa | 1470.22
283.48 K, 25000 kPa | 1513.47
283.48 K, 30000 kPa | 1522.25
283.49 K, 15000 kPa | 1493.18
283.49 K, 20000 kPa | 1503.4
283.49 K, 40000 kPa | 1538.97
283.49 K, 50000 kPa | 1553.61
283.49 K, 80000 kPa | 1591.2
283.49 K, 90000 kPa | 1602.13
283.49 K, 100000 kPa | 1612.51
283.5 K, 60000 kPa | 1567.59
283.5 K, 70000 kPa | 1579.58
293.33 K, 40000 kPa | 1520.74
293.33 K, 50000 kPa | 1536.34
293.34 K, 100 kPa | 1433.67
293.34 K, 3000 kPa | 1442.2
293.34 K, 5000 kPa | 1447.74
293.34 K, 10000 kPa | 1460.66
293.34 K, 25000 kPa | 1493.61
293.34 K, 80000 kPa | 1575.81
293.35 K, 15000 kPa | 1472.51
293.35 K, 20000 kPa | 1483.44
293.35 K, 70010 kPa | 1563.65
293.35 K, 100000 kPa | 1597.56
293.36 K, 1000 kPa | 1436.34
293.36 K, 30000 kPa | 1503.18
293.36 K, 60000 kPa | 1550.72
293.36 K, 90000 kPa | 1586.86
303.23 K, 100 kPa | 1410.99
303.23 K, 1000 kPa | 1413.95
303.23 K, 3000 kPa | 1420.34
303.23 K, 5000 kPa | 1426.43
303.23 K, 10000 kPa | 1440.51
303.23 K, 15000 kPa | 1453.28
303.23 K, 30000 kPa | 1485.94
303.23 K, 40000 kPa | 1504.31
303.23 K, 70000 kPa | 1549.38
303.23 K, 90000 kPa | 1573.69
303.23 K, 100000 kPa | 1584.73
303.24 K, 20000 kPa | 1464.95
303.24 K, 25000 kPa | 1475.81
303.24 K, 50000 kPa | 1520.78
303.24 K, 60000 kPa | 1535.65
303.24 K, 80000 kPa | 1561.98
313.14 K, 40000 kPa | 1487.04
313.15 K, 25000 kPa | 1456.84
313.15 K, 50000 kPa | 1504.3
313.15 K, 60000 kPa | 1519.95
313.16 K, 15000 kPa | 1432.86
313.16 K, 20000 kPa | 1445.3
313.16 K, 30000 kPa | 1467.53
313.17 K, 1000 kPa | 1390.04
313.17 K, 5000 kPa | 1403.68
313.17 K, 10000 kPa | 1418.95
313.17 K, 100000 kPa | 1571.77
313.18 K, 100 kPa | 1386.8
313.18 K, 3000 kPa | 1397.04
313.18 K, 90000 kPa | 1559.98
313.19 K, 70000 kPa | 1535.1
313.19 K, 80000 kPa | 1547.94
323.03 K, 70000 kPa | 1522.41
323.03 K, 79990 kPa | 1535.93
323.03 K, 90000 kPa | 1548.47
323.03 K, 100000 kPa | 1560.39
323.04 K, 15000 kPa | 1415.6
323.04 K, 20000 kPa | 1429.06
323.04 K, 25000 kPa | 1441.36
323.04 K, 30000 kPa | 1452.73
323.04 K, 40000 kPa | 1473.17
323.04 K, 50000 kPa | 1491.32
323.04 K, 60000 kPa | 1507.67
323.05 K, 100 kPa | 1365.33
323.05 K, 1000 kPa | 1368.99
323.05 K, 3000 kPa | 1376.71
323.05 K, 5000 kPa | 1384.07
323.05 K, 10000 kPa | 1400.75
332.93 K, 80000 kPa | 1522.17
332.93 K, 90000 kPa | 1535.21
332.93 K, 100000 kPa | 1547.28
332.94 K, 15000 kPa | 1395.61
332.94 K, 20000 kPa | 1409.99
332.94 K, 25000 kPa | 1423.08
332.94 K, 30000 kPa | 1435.1
332.94 K, 40000 kPa | 1456.69
332.94 K, 50000 kPa | 1475.63
332.94 K, 60000 kPa | 1492.7
332.94 K, 70000 kPa | 1508.09
332.95 K, 100 kPa | 1340.66
332.95 K, 1000 kPa | 1344.7
332.95 K, 3000 kPa | 1353.32
332.95 K, 5000 kPa | 1361.37
332.95 K, 10000 kPa | 1379.59
342.83 K, 100 kPa | 1316.31
342.83 K, 3000 kPa | 1330.5
342.84 K, 1000 kPa | 1320.87
342.84 K, 5000 kPa | 1339.38
342.85 K, 10000 kPa | 1359.29
342.85 K, 15000 kPa | 1376.59
342.85 K, 20000 kPa | 1391.96
342.86 K, 25000 kPa | 1405.93
342.86 K, 30000 kPa | 1418.67
342.86 K, 40000 kPa | 1441.37
342.87 K, 60000 kPa | 1479.04
342.87 K, 69990 kPa | 1494.97
342.87 K, 80000 kPa | 1509.52
342.88 K, 50000 kPa | 1461.22
342.88 K, 90000 kPa | 1522.96
342.88 K, 100000 kPa | 1535.5
352.77 K, 3000 kPa | 1307.3
352.78 K, 1000 kPa | 1296.47
352.78 K, 5000 kPa | 1317.18
352.78 K, 10000 kPa | 1339.03
352.78 K, 15000 kPa | 1357.74
352.78 K, 20000 kPa | 1374.27
352.78 K, 25000 kPa | 1389.09
352.78 K, 30000 kPa | 1402.65
352.78 K, 40000 kPa | 1426.56
352.78 K, 50000 kPa | 1447.34
352.78 K, 60000 kPa | 1465.76
352.79 K, 70000 kPa | 1482.51
352.79 K, 80000 kPa | 1497.6
352.79 K, 90000 kPa | 1511.48
352.79 K, 100000 kPa | 1524.4
362.72 K, 1000 kPa | 1270.63
362.72 K, 3000 kPa | 1282.75
362.73 K, 5000 kPa | 1293.79
362.73 K, 10000 kPa | 1317.75
362.73 K, 15000 kPa | 1338.07
362.73 K, 20000 kPa | 1355.77
362.73 K, 25000 kPa | 1371.52
362.73 K, 30000 kPa | 1385.83
362.73 K, 40000 kPa | 1410.97
362.73 K, 50000 kPa | 1432.73
362.73 K, 60000 kPa | 1451.97
362.73 K, 70000 kPa | 1469.11
362.73 K, 80000 kPa | 1484.73
362.73 K, 90000 kPa | 1499.1
362.73 K, 100000 kPa | 1512.38
